Laboratory results published in paper PMC10865409, “The prFMNH2-binding chaperone LpdD assists UbiD decarboxylase activation” (The Journal of Biological Chemistry, 2024).

Columns and labels:
LpdD [1] = biological target: T1, LpdD (Lactiplantibacillus plantarum, UniProt F9UT68); experiment: UV-Vis after in vitro reconstitution and desalting; format: binding; details: anaerobic, 2:1 prFMNH2:protein, 50 mM Tris pH 7.5, 200 mM NaCl, with or without MnCl2
T1 construct: full length, N-terminal hexahistidine tag (best crystals; C-terminal also made), E. coli codon-optimized gene, E. coli BL21(DE3), Ni-NTA; dimer
T1 sequence (F9UT68 1-136): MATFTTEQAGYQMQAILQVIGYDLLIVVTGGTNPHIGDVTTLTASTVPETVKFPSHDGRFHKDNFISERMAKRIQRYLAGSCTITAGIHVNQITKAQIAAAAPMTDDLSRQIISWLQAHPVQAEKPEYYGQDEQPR

LpdD [2] = biological target: T2, LpdD (Lactiplantibacillus plantarum, UniProt F9UT68, H61A); experiment: UV-Vis after in vitro reconstitution and desalting; format: binding; details: anaerobic, 2:1 prFMNH2:protein, 50 mM Tris pH 7.5, 200 mM NaCl, 1 mM MnCl2
T2 construct: full length, N-terminal hexahistidine tag (best crystals; C-terminal also made), E. coli codon-optimized gene, E. coli BL21(DE3), Ni-NTA; dimer

[3] = biological target: T3, UbiD (Strep-tagged apo-UbiD) (Escherichia coli, UniProt P0AAB4); experiment: ESI-MS of reconstituted Strep-UbiD; format: binding; details: reconstituted with LpdD-containing cell lysate and prFMNH2
T3 construct: Strep-tagged, purified apo-UbiD reconstituted with LpdD-containing E. coli lysate and prFMNH2; 4-hydroxybenzoate row is endogenous UbiD of E. coli BL21(DE3)
T3 sequence (P0AAB4 1-497): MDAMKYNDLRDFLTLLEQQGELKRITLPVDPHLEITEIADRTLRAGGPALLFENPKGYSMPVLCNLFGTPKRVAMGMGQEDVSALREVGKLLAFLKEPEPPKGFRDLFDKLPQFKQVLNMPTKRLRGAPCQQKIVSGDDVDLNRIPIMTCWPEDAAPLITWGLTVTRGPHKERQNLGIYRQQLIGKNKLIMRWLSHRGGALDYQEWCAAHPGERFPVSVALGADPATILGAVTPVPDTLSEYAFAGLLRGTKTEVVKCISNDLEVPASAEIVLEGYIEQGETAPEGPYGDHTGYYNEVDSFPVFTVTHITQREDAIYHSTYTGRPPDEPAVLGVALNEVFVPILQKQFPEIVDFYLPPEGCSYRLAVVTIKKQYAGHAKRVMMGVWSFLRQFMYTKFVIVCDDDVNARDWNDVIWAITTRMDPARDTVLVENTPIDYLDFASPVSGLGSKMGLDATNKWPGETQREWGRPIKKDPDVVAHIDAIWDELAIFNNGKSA

[4] = biological target: T3, UbiD (Strep-tagged apo-UbiD); experiment: decarboxylation by HPLC; Strep-UbiD plus LpdD-containing lysate; format: biochemical; details: anaerobic; LpdD lysate supernatant with or without prFMNH2; purified UbiD alone inactive
[5] = biological target: the molecule itself; experiment: crystal structure; N-terminally His-tagged LpdD, ca 15 mg/ml, 1.6 M magnesium sulfate heptahydrate, 0.1 M Mes pH 6.5, 20 °C; space group I222, two monomers in the asymmetric unit; dimer built by crystallographic symmetry
[6] = biological target: T4, Strep-tagged Escherichia coli UbiD (Escherichia coli, UniProt P0AAB4 1-497); experiment: pull-down; Strep-tagged UbiD and His-tagged LpdD mixed in an equimolar ratio, pulled down with streptavidin beads under anaerobic conditions; SDS-PAGE and His-Western blot; details: both partners purified
T4 construct: UbiD, prFMN-dependent decarboxylase of ubiquinone biosynthesis, Escherichia coli; also called Strep-UbiD; Strep-apo-UbiD; source: purified
T4 sequence (looked up): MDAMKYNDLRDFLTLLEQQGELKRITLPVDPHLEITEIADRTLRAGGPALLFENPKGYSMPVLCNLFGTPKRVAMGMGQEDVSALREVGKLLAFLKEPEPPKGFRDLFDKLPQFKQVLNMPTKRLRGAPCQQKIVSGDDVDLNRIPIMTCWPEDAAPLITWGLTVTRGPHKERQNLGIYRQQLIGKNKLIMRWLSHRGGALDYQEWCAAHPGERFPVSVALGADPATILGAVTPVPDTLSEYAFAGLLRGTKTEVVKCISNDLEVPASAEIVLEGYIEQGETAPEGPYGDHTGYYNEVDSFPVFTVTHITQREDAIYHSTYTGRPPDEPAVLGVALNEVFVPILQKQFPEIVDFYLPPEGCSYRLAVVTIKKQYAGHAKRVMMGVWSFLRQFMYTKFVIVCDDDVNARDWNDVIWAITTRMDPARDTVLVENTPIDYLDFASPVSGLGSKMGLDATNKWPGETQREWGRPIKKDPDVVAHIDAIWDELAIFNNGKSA

[7] = biological target: the molecule itself; experiment: crystal structure; LpdD H35A, space group P4_(1)2_(1)2, one molecule in the asymmetric unit, distinct crystallization conditions; dimer built by crystallographic symmetry

T2 sequence (F9UT68 whole entry H61A): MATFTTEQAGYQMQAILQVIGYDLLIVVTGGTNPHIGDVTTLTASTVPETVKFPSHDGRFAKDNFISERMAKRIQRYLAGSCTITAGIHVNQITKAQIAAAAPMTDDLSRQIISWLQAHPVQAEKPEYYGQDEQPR

## Cc1cc2c3c(c1C)C(C)(C)CCN3c1c([nH]c(=O)[nH]c1=O)N2C[C@H](O)[C@H](O)[C@H](O)COP(=O)(O)O [prFMNH2]
LpdD [1]
  UV-Vis after in vitro reconstitution and desalting: In vitro reconstitution of purified apo-LpdD with prFMNH2 results in similar spectral features
LpdD [2]
  UV-Vis after in vitro reconstitution and desalting: purified H61A variant reveals this mutation does not abolish prFMNH2 binding

## Cc1cc2c3c(c1C)C(C)(C)CC=[N+]3c1c(nc([O-])[nH]c1=O)N2C[C@H](O)[C@H](O)[C@H](O)COP(=O)(O)O [prFMN^iminium]
[3]
  ESI-MS of reconstituted Strep-UbiD: reconstituted Strep-UbiD reveals the presence of catalytically relevant prFMN^iminium species

## O=C(O)c1ccc(O)c(O)c1 [compound 2, 3,4-dihydroxy-benzoic acid]
[4]
  decarboxylation by HPLC; Strep-UbiD plus LpdD-containing lysate: activity was observed when LpdD-containing cell lysate supernatant was included in the assays

B1: LpdD (lp_0272) from Lactobacillus plantarum, His-tagged (natural protein)
chain: MATFTTEQAGYQMQAILQVIGYDLLIVVTGGTNPHIGDVTTLTASTVPETVKFPSHDGRFHKDNFISERMAKRIQRYLAGSCTITAGIHVNQITKAQIAAAAPMTDDLSRQIISWLQAHPVQAEKPEYYGQDEQPR
notes: LpdD, small protein associated with the UbiD-type gallate decarboxylase LpdC, Lactobacillus plantarum, locus lp_0272; E. coli codon-optimized synthetic gene; N- and C-terminally His-tagged LpdD were both made (pET28a and pET30a); the best crystals came from the N-terminally tagged protein; The pull-down says only 'His-tagged LpdD'; The tag is detected by His-Western blot in the pull-down; also …
[5]
  stoichiometry N: 2
[6]
  binding result: binds

B2: LpdD H35A variant (natural protein, Lactobacillus plantarum)
chain: MATFTTEQAGYQMQAILQVIGYDLLIVVTGGTNPAIGDVTTLTASTVPETVKFPSHDGRFHKDNFISERMAKRIQRYLAGSCTITAGIHVNQITKAQIAAAAPMTDDLSRQIISWLQAHPVQAEKPEYYGQDEQPR
notes: LpdD, Lactobacillus plantarum, locus lp_0272, with H35A made by site-directed mutagenesis of the WT construct; source: E. coli BL21(DE3), purified
[7]
  stoichiometry N: 2
